From patent publication US20110207800A1, “HIV-Dependent expression constructs and uses therefore” (priority 2008, published 2011)

What was measured:
[1] = molecular target: α-hemolysin (Staphylococcus aureus, UniProt P09616); format: cell-based
[2] = system: HIV-1-positive J1.1 cell line; format: cell-based
[3] = system: AnlO; format: cell-based, Bacillus anthracis
[4] = system: healthy macrophages; format: cell-based, human

α-hemolysin, sequence (P09616 27-319 limits assumed): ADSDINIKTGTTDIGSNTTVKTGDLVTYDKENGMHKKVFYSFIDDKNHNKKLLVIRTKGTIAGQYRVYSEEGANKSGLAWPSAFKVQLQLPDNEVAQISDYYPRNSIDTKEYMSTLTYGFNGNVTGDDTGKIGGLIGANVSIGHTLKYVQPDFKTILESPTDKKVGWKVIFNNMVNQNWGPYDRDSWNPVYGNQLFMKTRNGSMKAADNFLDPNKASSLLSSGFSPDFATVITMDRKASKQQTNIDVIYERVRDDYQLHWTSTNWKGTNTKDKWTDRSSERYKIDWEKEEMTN

Compound | number of GFP positive cells [1] | infectivity of virus generated in the presence of the compound [2] | change of GFP-positive cell population (inhibition of cytolysis by anlO) [3] | cytolysis, share of the cells [4] | time to detection of cytolysis ([4]; 500 ng/ml)
6-boc orthinine amide-β-cyclodextrin [6-BOCD] | did not increase | no difference in infectivity | doubling |  | 
COc1ccc(C[C@H](N)C(=O)N[C@H]2[C@@H](O)[C@H](n3cnc4c(N(C)C)ncnc43)O[C@@H]2CO)cc1 [puromycin] |  |  |  | 25% | ≤ 2 days
